Usually melting point stands for the temperature, or range, at which the solid turns liquid. With `C1CC(C23CSC(SC2)SC3)C1`, the melting point lay in the range of 112 to 114 °C.

`CC(C)(C)OC(=O)C1CCCN1C(=O)NN` (stereo not given) showed a melting point of 83 to 84 °C.

In turn, `CC(C)c1ccc2nc3c(C(=O)O)cccn3c(=O)c2c1` gave a melting point of 206 to 210 °C.

`CC(C)C#Cc1ncn2c1CN(C)C(=O)c1c(Cl)cccc1-2` displayed a melting point of 128 to 130 °C.

`CC(=O)OCC1OC(Oc2nc[nH]c2C(N)=O)C(OC(C)=O)C(OC(C)=O)C1OC(C)=O` (stereo not given) had a melting point of 234 to 235 °C.

Take `Cc1ccc2[nH]c(=O)n(CCCN3CCC(C(=O)c4ccc(F)cc4)CC3)c2c1`: the melting point was determined as 150 °C.

The compound `CC(=O)C(O)C1OC(S(=O)(=O)c2ncc(Cl)cn2)C(O)(C(C)=O)C(O)(C(C)=O)C1(O)C(C)=O` (stereo not given) returned a melting point of 180 °C.

`OCc1onc(-c2ccc(Cl)o2)c1-c1ccccc1` displayed a melting point of 102 to 103 °C.

`CCCCc1ccc(-c2cc(C(=O)O)cc(-c3ccc(Cl)cc3)n2)cc1` showed a melting point of 209 to 210 °C.

The compound `O=S(=O)(c1ccc(Cl)cc1)C(c1cc(F)ccc1F)c1cc(NCc2ccncc2)ncc1Cl` (stereo not given) yielded a melting point of 141 to 142 °C.

The compound `Nc1nc(Cl)cnc1-c1cccc(Cl)c1Cl` gave a melting point of 179 to 181 °C.

As to `CC1(C)Oc2cc3nc(SCc4ccccn4)[nH]c3cc2O1`, the melting point fell in the range of 210 to 211 °C.

On to `COc1ccc(S(=O)(=O)NC=NCCSCc2csc(NC=NN)n2)cc1`, for which the melting point lay in the range of 68 to 76 °C.

`O=C(Cc1ccc(Cl)c(Cl)c1)c1ccc(Cl)cc1` displayed a melting point of 99 to 103 °C.

`COc1cc(CN2N=C(c3ccc(OC)c(OC)c3)[C@@H]3CCCC[C@@H]3C2=O)cc(OC)c1` (relative stereo) registered a melting point of 114 to 117 °C.

Take `CN(C)C(=O)Nc1ccc2c(c1)C(=O)NC(=O)C2(C)C`: the melting point lay within 256 to 258 °C.

As for `c1ccc2c(c1)nc(-c1ccc3c(c1)OCO3)n2Cc1ccc2c(c1)OCO2`, the melting point lay within 173 to 174 °C.

In turn, `COc1cncnc1N1CCN(CCCc2c[nH]c3ccc([N+](=O)[O-])cc23)CC1` displayed a melting point of 163 to 166 °C.

For `CC(=O)N(C)c1cccc(-c2ccc3nnc(N)n3n2)c1`, the melting point lay within 196 to 197 °C.

The compound `COc1cc(CBr)cc2c(Br)ccc(OC(C)C)c12` displayed a melting point of 126 °C.

In the case of `NS(=O)(=O)c1cc(Cl)c(Cl)c(Cl)c1`, the melting point was 190 to 191 °C.

`COC(=O)CCCC(=O)Nc1ccc(C(=O)NN=C2C(=O)Nc3ccc(I)cc32)cc1` displayed a melting point of 282 °C.

`FC(F)(F)c1cccc(-c2nccc3nncn23)c1` had a melting point of 145 to 146 °C.

With `CC(c1oc2ccccc2c(=O)c1-c1cccc(F)c1)n1nc(-c2cc(O)cc(F)c2)c2c(N)ncnc21` (stereo not given), the melting point was 271 to 273 °C.

In turn, `CCN1CCc2ccc(Nc3ncc(Cl)c(N[C@H]4CCCC[C@H]4C(=O)NC)n3)cc2CC1` (relative stereo) returned a melting point of 143 °C.

With `O=C(NCc1ccc(Cl)cc1)c1cn(CCN2CCCCC2)c2ccc(C#CCO)cc2c1=O`, the melting point lay within 176 to 180 °C.

Compound `CC(C)(C)NCC(O)COc1cccc2[nH]cc(Cl)c12` (stereo not given) displayed a melting point of 95 to 97 °C.

`CCOC(=O)c1ccc(OCCCCl)cc1` displayed a melting point of 24 to 25 °C.

As to `CC(=O)Nc1cccc(Oc2ccn3nc(-c4ccccc4)c(-c4ccc(=O)n(C(C)C)n4)c3c2)c1`, the melting point is 178 °C.

Consider `CSc1ccc(C=C(C(=O)O)c2ccc(F)cc2)cc1`, for which the melting point lay within 136 to 138 °C.

`Sc1nncn1Cc1ccccc1` had a melting point of 124 to 125 °C.

Compound `O=C(O)c1ncn2c1[C@@H]1CCN1C(=O)c1c-2ccc(F)c1Cl` showed a melting point of 225 to 226 °C.

`O=C(Nc1nc(-c2ccccc2)cs1)C(=O)Nc1nc(-c2ccccc2)cs1` came in with a melting point of 292 to 293 °C.

`CSc1ccc(CNC(=O)c2sc(NC(C)=O)nc2CCc2ccc(NC(=O)OC(C)(C)C)cc2)cc1` came in with a melting point of 182 to 183 °C.

As for `CCCCNC(=O)Oc1ccc(Oc2ccc(OC)cc2)cc1`, the melting point lay in the range of 63 to 64 °C.

These data come from a melting point compilation (Tetko et al.; mined from patent text by program, amines drawn as free bases though some values may be those of a salt).
